Values after ≈ are worked out from the molar mass of the structure shown.
Tests used:
Type in all cases: cell-based
A. baumannii ATCC 19606 = assay: Broth microdilution MIC in CAMHB; conditions: Acinetobacter baumannii, ATCC19606; MHB; read-out: Minimum Inhibitory Concentration, A. baumannii ATCC 19606
Procedure, shortened: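 Per CLSI broth microdilution, colonies were grown 3-5 h at 37° C in cation-adjusted Mueller Hinton broth, then diluted to a starting inoculum of 2-8×10^5 CFU/mL against 2-fold serial compound dilutions. Plates were incubated 16-20 h at 37° C, and MIC was read visually as the lowest concentration with no growth.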

E. coli 901C = assay: Broth microdilution MIC in CAMHB; conditions: Escherichia coli; E. coli 901C (hyper-permeable); MHB; read-out: Minimum Inhibitory Concentration, E. coli 901C
Procedure, shortened: (§1)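 MIC, read by eye, is the lowest compound concentration giving no bacterial growth after 16-20 h at 37° C. Test compounds are serially diluted 2-fold in CAMHB and seeded with 2-8×10^5 CFU/mL of bacteria taken from a 3-5 h shaking culture, following CLSI methods.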

E. coli AG100 = assay: Broth microdilution MIC in CAMHB; conditions: Escherichia coli; E. coli AG100 (wild-type parent); MHB; read-out: Minimum Inhibitory Concentration, E. coli AG100
Procedure, shortened: as §1

E. coli D22 = assay: Broth microdilution MIC in CAMHB; conditions: Escherichia coli; E. coli D22 (hyper-permeable); MHB; read-out: Minimum Inhibitory Concentration, E. coli D22
Procedure, shortened: as §1

[1] = test system: K. pneumoniae SI-117 producing VIM-1; assay: Broth microdilution MIC in CAMHB; conditions: Klebsiella pneumoniae, read-out: Minimum Inhibitory Concentration, K. pneumoniae SI-117
Procedure, shortened: as §1

[2] = test system: N. gonorrhoeae ATCC 49226; assay: Liquid broth MIC in Fastidious broth; conditions: Neisseria gonorrhoeae, ATCC49226; N. gonorrhoeae strain ATCC 49226; Fastidious broth; read-out: Minimum Inhibitory Concentration, N. gonorrhoeae ATCC 49226
Procedure, shortened: (§2)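 Colonies were swabbed from chocolate agar after 24 h growth and standardised by optical density at 600 nm. Compounds were serially diluted twofold in Fastidious broth, and bacteria added to give 5×10^5 CFU/mL. After about 24 h at 36 °C in 5% CO2, the lowest concentration allowing under 10% growth was taken as MIC.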

N. gonorrhoeae FA1090 = assay: Liquid broth MIC in Fastidious broth; conditions: Neisseria gonorrhoeae; N. gonorrhoeae strain FA1090; Fastidious broth; read-out: Minimum Inhibitory Concentration, N. gonorrhoeae FA1090
Procedure, shortened: as §2

N. gonorrhoeae H041 = assay: Liquid broth MIC in Fastidious broth; conditions: Neisseria gonorrhoeae, H041, read-out: Minimum Inhibitory Concentration, N. gonorrhoeae H041
Procedure, shortened: (§3)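 Mosaic-PBP2 strains grown 24 h on chocolate agar (36 °C, 5% CO2), then direct-suspended in saline and OD600-adjusted. Twofold compound dilutions in Fastidious broth inoculated at 5×10^5 CFU/mL and incubated ~24 h at 36 °C, 5% CO2. MIC read visually as lowest concentration with <10% growth versus full-growth wells.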

N. gonorrhoeae WHO G = assay: Liquid broth MIC in Fastidious broth; conditions: Neisseria gonorrhoeae; N. gonorrhoeae strain WHO G; Fastidious broth; read-out: Minimum Inhibitory Concentration, N. gonorrhoeae WHO G
Procedure, shortened: as §2

N. gonorrhoeae WHO K = assay: Liquid broth MIC in Fastidious broth; conditions: Neisseria gonorrhoeae, read-out: Minimum Inhibitory Concentration, N. gonorrhoeae WHO K
Procedure, shortened: as §3

N. gonorrhoeae WHO L = assay: Liquid broth MIC in Fastidious broth; conditions: Neisseria gonorrhoeae; N. gonorrhoeae strain WHO L; Fastidious broth; read-out: Minimum Inhibitory Concentration, N. gonorrhoeae WHO L
Procedure, shortened: as §2

N. gonorrhoeae WHO Q = assay: Liquid broth MIC in Fastidious broth; conditions: Neisseria gonorrhoeae, read-out: Minimum Inhibitory Concentration, N. gonorrhoeae WHO Q
Procedure, shortened: as §3

N. gonorrhoeae WHO Z = assay: Liquid broth MIC in Fastidious broth; conditions: Neisseria gonorrhoeae, read-out: Minimum Inhibitory Concentration, N. gonorrhoeae WHO Z
Procedure, shortened: as §3

Compound | MIC (A. baumannii ATCC 19606) [µg/mL] | MIC (E. coli 901C) [µg/mL] | MIC (E. coli AG100) [µg/mL] | MIC (E. coli D22) [µg/mL] | MIC [1] [µg/mL] | MIC [2] [µg/mL] | MIC (N. gonorrhoeae FA1090) [µg/mL] | MIC (N. gonorrhoeae H041) [µg/mL] | MIC (N. gonorrhoeae WHO G) [µg/mL] | MIC (N. gonorrhoeae WHO K) [µg/mL] | MIC (N. gonorrhoeae WHO L) [µg/mL] | MIC (N. gonorrhoeae WHO Q) [µg/mL] | MIC (N. gonorrhoeae WHO Z) [µg/mL]
NCCN1CCN(C(=O)NC(C(=O)N[C@H]2Cc3cccc(C(=O)O)c3OB2O)c2ccc(C(=O)O)cc2O)C(=O)C1=O (stereo partly drawn) [Example 142, (3R)-3-(2-(4-(2-aminoethyl)-2,3-dioxopiperazine-1-carboxamido)-2-(4-carboxy-2-hydroxyphenyl)acetamido)-2-hydroxy-3,4-dihydro-2H-benzo[e][1,2]oxaborinine-8-carboxylic acid] | > 128 | 2 to 4 (≈ 3.43 to 6.86 µM) | 32 to 64 (≈ 54.9 to 110 µM) | 8 to 16 (≈ 13.7 to 27.4 µM) | > 128 | 16 to 32 (≈ 27.4 to 54.9 µM) | 4 to 8 (≈ 6.86 to 13.7 µM) | > 64 | 4 to 8 (≈ 6.86 to 13.7 µM) | > 64 | > 64 | > 64 | > 64
CCN1CCN(C(=O)NC(C(=O)N[C@H]2Cc3cccc(C(=O)O)c3OB2O)c2ccc(C(=O)O)cc2F)C(=O)C1=O (stereo partly drawn) [Example 145, (3R)-3-(2-(4-carboxy-2-fluorophenyl)-2-(4-ethyl-2,3-dioxopiperazine-1-carboxamido)acetamido)-2-hydroxy-3,4-dihydro-2H-benzo[e][1,2]oxaborinine-8-carboxylic acid] | > 128 | < 0.25 | 32 to 64 (≈ 56.1 to 112 µM) | 2 to 4 (≈ 3.51 to 7.01 µM) | > 128 | 1 to 2 (≈ 1.75 to 3.51 µM) | < 0.125 | 4 to 8 (≈ 7.01 to 14 µM) | 1 to 2 (≈ 1.75 to 3.51 µM) | 4 to 8 (≈ 7.01 to 14 µM) | 16 to 32 (≈ 28.1 to 56.1 µM) | 4 to 8 (≈ 7.01 to 14 µM) | 4 to 8 (≈ 7.01 to 14 µM)
CCN1CCN(C(=O)NC(C(=O)N[C@H]2Cc3cccc(C(=O)O)c3OB2O)c2c(Cl)cc(C(=O)O)cc2Cl)C(=O)C1=O (stereo partly drawn) [Example 150, (3R)-3-(2-(4-carboxy-2,6-dichlorophenyl)-2-(4-ethyl-2,3-dioxopiperazine-1-carboxamido)acetamido)-2-hydroxy-3,4-dihydro-2H-benzo[e][1,2]oxaborinine-8-carboxylic acid] | > 128 | < 0.25 | > 128 | 2 to 4 (≈ 3.22 to 6.44 µM) | > 128 | > 64 | 4 to 8 (≈ 6.44 to 12.9 µM) | > 64 | 16 to 32 (≈ 25.8 to 51.5 µM) | > 64 | > 64 | > 64 | > 64
NCCN1CCN(C(=O)NC(C(=O)N[C@H]2Cc3cccc(C(=O)O)c3OB2O)c2ccc(C(=O)O)c(Cl)c2)C(=O)C1=O (stereo partly drawn) [Example 153, (3R)-3-(2-(4-(2-aminoethyl)-2,3-dioxopiperazine-1-carboxamido)-2-(4-carboxy-3-chlorophenyl)acetamido)-2-hydroxy-3,4-dihydro-2H-benzo[e][1,2]oxaborinine-8-carboxylic acid] | > 128 | 0.5 to 1 (≈ 0.831 to 1.66 µM) | 32 to 64 (≈ 53.2 to 106 µM) | 2 to 4 (≈ 3.32 to 6.65 µM) | > 128 | 16 to 32 (≈ 26.6 to 53.2 µM) | 1 to 2 (≈ 1.66 to 3.32 µM) | > 64 | 4 to 8 (≈ 6.65 to 13.3 µM) | 16 to 32 (≈ 26.6 to 53.2 µM) | > 64 | 16 to 32 (≈ 26.6 to 53.2 µM) | 16 to 32 (≈ 26.6 to 53.2 µM)
O=C(O)c1cccc2c1OB(O)[C@@H](NC(=O)C(NC(=O)N1CCNC1=O)c1c(F)cc(O)cc1F)C2 (stereo partly drawn) [Example 156, (3R)-3-(2-(2,6-difluoro-4-hydroxyphenyl)-2-(2-oxoimidazolidine-1-carboxamido)acetamido)-2-hydroxy-3,4-dihydro-2H-benzo[e][1,2]oxaborinine-8-carboxylic acid] | > 128 | 0.5 to 1 (≈ 0.992 to 1.98 µM) | 32 to 64 (≈ 63.5 to 127 µM) | 8 to 16 (≈ 15.9 to 31.7 µM) | 32 to 64 (≈ 63.5 to 127 µM) | 16 to 32 (≈ 31.7 to 63.5 µM) | 1 to 2 (≈ 1.98 to 3.97 µM) | > 64 | 4 to 8 (≈ 7.93 to 15.9 µM) | > 64 | > 64 | > 64 | > 64
CCN1CCN(C(=O)NC(C(=O)N[C@H]2Cc3cccc(C(=O)O)c3OB2O)c2c(F)cc(C(=O)O)cc2F)C(=O)C1=O (stereo partly drawn) [Example 157, (3R)-3-(2-(4-carboxy-2,6-difluorophenyl)-2-(4-ethyl-2,3-dioxopiperazine-1-carboxamido)acetamido)-2-hydroxy-3,4-dihydro-2H-benzo[e][1,2]oxaborinine-8-carboxylic acid] | > 128 | < 0.25 | 32 to 64 (≈ 54.4 to 109 µM) | 2 to 4 (≈ 3.4 to 6.8 µM) | > 128 | 4 to 8 (≈ 6.8 to 13.6 µM) | < 0.125 | 16 to 32 (≈ 27.2 to 54.4 µM) | 1 to 2 (≈ 1.7 to 3.4 µM) | 4 to 8 (≈ 6.8 to 13.6 µM) | 4 to 8 (≈ 6.8 to 13.6 µM) | 4 to 8 (≈ 6.8 to 13.6 µM) | 4 to 8 (≈ 6.8 to 13.6 µM)
CCN1CCN(C(=O)NC(C(=O)N[C@H]2Cc3cccc(C(=O)O)c3OB2O)c2cc(F)c(O)c(F)c2)C(=O)C1=O (stereo partly drawn) [Example 160, (3R)-3-(2-(3,5-difluoro-4-hydroxyphenyl)-2-(4-ethyl-2,3-dioxopiperazine-1-carboxamido)acetamido)-2-hydroxy-3,4-dihydro-2H-benzo[e][1,2]oxaborinine-8-carboxylic acid] | > 128 | < 0.25 | 32 to 64 (≈ 57.1 to 114 µM) | 2 to 4 (≈ 3.57 to 7.14 µM) | > 128 | 4 to 8 (≈ 7.14 to 14.3 µM) | < 0.125 | 16 to 32 (≈ 28.6 to 57.1 µM) | 1 to 2 (≈ 1.78 to 3.57 µM) | 16 to 32 (≈ 28.6 to 57.1 µM) | 16 to 32 (≈ 28.6 to 57.1 µM) | 4 to 8 (≈ 7.14 to 14.3 µM) | 4 to 8 (≈ 7.14 to 14.3 µM)
NCCN1CCN(C(=O)NC(C(=O)N[C@H]2Cc3cccc(C(=O)O)c3OB2O)c2cc(F)c(O)c(Cl)c2)C(=O)C1=O (stereo partly drawn) [Example 163, (3R)-3-(2-(4-(2-aminoethyl)-2,3-dioxopiperazine-1-carboxamido)-2-(3-chloro-5-fluoro-4-hydroxyphenyl)acetamido)-2-hydroxy-3,4-dihydro-2H-benzo[e][1,2]oxaborinine-8-carboxylic acid] | > 128 | 0.5 to 1 (≈ 0.845 to 1.69 µM) | 32 to 64 (≈ 54.1 to 108 µM) | 8 to 16 (≈ 13.5 to 27 µM) | > 128 | > 64 | 1 to 2 (≈ 1.69 to 3.38 µM) | > 64 | 16 to 32 (≈ 27 to 54.1 µM) | > 64 | > 64 | > 64 | > 64
CCN1CCN(C(=O)NC(C(=O)N[C@H]2Cc3cccc(C(=O)O)c3OB2O)c2cc(F)c(O)c(Cl)c2)C(=O)C1=O (stereo partly drawn) [Example 164, (3R)-3-(2-(3-chloro-5-fluoro-4-hydroxyphenyl)-2-(4-ethyl-2,3-dioxopiperazine-1-carboxamido)acetamido)-2-hydroxy-3,4-dihydro-2H-benzo[e][1,2]oxaborinine-8-carboxylic acid] | > 128 | < 0.25 | 32 to 64 (≈ 55.5 to 111 µM) | 2 to 4 (≈ 3.47 to 6.94 µM) | > 128 | 4 to 8 (≈ 6.94 to 13.9 µM) | 0.25 to 0.5 (≈ 0.433 to 0.867 µM) | 16 to 32 (≈ 27.7 to 55.5 µM) | 1 to 2 (≈ 1.73 to 3.47 µM) | 16 to 32 (≈ 27.7 to 55.5 µM) | 16 to 32 (≈ 27.7 to 55.5 µM) | 16 to 32 (≈ 27.7 to 55.5 µM) | 4 to 8 (≈ 6.94 to 13.9 µM)
CCN1CCN(C(=O)NC(C(=O)N[C@H]2Cc3cccc(C(=O)O)c3OB2O)c2cc(Cl)c(O)c(Cl)c2)C(=O)C1=O (stereo partly drawn) [Example 171, (3R)-3-(2-(3,5-dichloro-4-hydroxyphenyl)-2-(4-ethyl-2,3-dioxopiperazine-1-carboxamido)acetamido)-2-hydroxy-3,4-dihydro-2H-benzo[e][1,2]oxaborinine-8-carboxylic acid] | > 128 | < 0.25 | 32 to 64 (≈ 53.9 to 108 µM) | 2 to 4 (≈ 3.37 to 6.74 µM) | > 128 | 4 to 8 (≈ 6.74 to 13.5 µM) | 0.25 to 0.5 (≈ 0.421 to 0.843 µM) | 16 to 32 (≈ 27 to 53.9 µM) | 4 to 8 (≈ 6.74 to 13.5 µM) | 16 to 32 (≈ 27 to 53.9 µM) | > 64 | 16 to 32 (≈ 27 to 53.9 µM) | 4 to 8 (≈ 6.74 to 13.5 µM)
CCN1CCN(C(=O)NC(C(=O)N[C@H]2Cc3cccc(C(=O)O)c3OB2O)c2cc(F)c(O)c(F)c2F)C(=O)C1=O (stereo partly drawn) [Example 172, (3R)-3-(2-(4-ethyl-2,3-dioxopiperazine-1-carboxamido)-2-(2,3,5-trifluoro-4-hydroxyphenyl)acetamido)-2-hydroxy-3,4-dihydro-2H-benzo[e][1,2]oxaborinine-8-carboxylic acid] | > 128 | < 0.25 | 8 to 16 (≈ 13.8 to 27.7 µM) | 2 to 4 (≈ 3.46 to 6.92 µM) | > 128 | 1 to 2 (≈ 1.73 to 3.46 µM) | < 0.125 | 16 to 32 (≈ 27.7 to 55.3 µM) | 0.25 to 0.5 (≈ 0.432 to 0.865 µM) | 4 to 8 (≈ 6.92 to 13.8 µM) | 4 to 8 (≈ 6.92 to 13.8 µM) | 4 to 8 (≈ 6.92 to 13.8 µM) | 1 to 2 (≈ 1.73 to 3.46 µM)
